One series relates to ES-SCLC. Briefly: Randomized phase II study in ES-SCLC (NCT00617409): objective response and survival. The series is classed as in vivo, human. The conditions noted are these: arm A (observation, no vaccine).
Series [1] has as its system Retinoid Acid Receptor (RAR) and Retinoid X Receptor (RXR). To be noted: cited from earlier work.
The test system of series [2] is Gr-1+ cells. To be noted: tumor-bearing mice, cited from earlier work.
Another series relates to MDSC. In words: Randomized phase II study: proportion of MDSC before and after immunization. The series is classed as in vivo, human.
In the next series the test system is MDSCs. Briefly: ATRA in patients with metastatic renal cell carcinoma: MDSC and DC. The series is classed as in vivo, human.
Series [3] concerns Gr-1+ cells. The conditions noted are these: in vitro; cited from earlier work.
In the next series the test system is human MDSCs. To be noted: in vitro; cited from earlier work.
The test system of a further series is advanced stage NSCLC. To be noted: cited from earlier work.
Series [4] has as its system PD-L1 expressing or negative tumors. To be noted: cited from earlier work; for overall response rate (ORR): all patients.
The conditions of series [5]: cited from earlier work.
For series [6] the following is noted: 38 patients; cited from earlier work.

Read-outs that look alike come from different tables or passages of the source.

Results on three compounds are retold here after patent US11071775B2, “Combination immunotherapy for treating cancer” (H. Lee Moffitt Cancer Center and Research Institute, Inc., priority 2015, dated 2021).

From the text for ES-SCLC: Patients with ES-SCLC were enrolled to this randomized phase II study. […] After receiving initial chemotherapy, (4-6 cycles of a standard platinum/etoposide regimen as first-line chemotherapy), patients were enrolled and randomized. Additional eligibility included; stable disease (SD) or better with Eastern Cooperative Oncology Group (ECOG) performance status of 0 to 1, and adequate organ function were screened for initial registration approximately 4-6 weeks after the completion of first-line chemotherapy. Prophylactic cranial irradiation (PCI) was permitted.
Each vaccine consisted of 2-5×10^6 Ad-p53 DCs. Cells were injected intradermally, at two-week intervals for three times (three vaccine doses). Patients were restaged approximately 2 weeks after the 3rd vaccine dose. Patients without signs of disease progression (PD) underwent a second leukapheresis and then vaccinated 3 more times at 4-week intervals. Patients on Arm C also received 150 mg/m^2 ATRA for 3 days prior to each vaccine administration (followed by vaccine administration on the next day).
All patients were followed until evidence of PD at which time they received salvage or second line chemotherapy with single agent paclitaxel (200 mg/m2 IV every 3 weeks, 4-6 cycles).
The primary objective was to evaluate the efficacy of second line paclitaxel in the two experimental regimens (Arms B and C). […]

Regarding `CC(=O)O[C@H]1C(=O)[C@@]2(C)[C@H]([C@H](OC(=O)c3ccccc3)[C@]3(O)C[C@H](OC(=O)[C@H](O)[C@@H](NC(=O)c4ccccc4)c4ccccc4)C(C)=C1C3(C)C)[C@]1(OC(C)=O)CO[C@@H]1C[C@@H]2O` [paclitaxel], in the series on ES-SCLC, the “OR to paclitaxel (or other second line treatment)” value is given as 1/11.
Take `CC1=C(/C=C/C(C)=C/C=C/C(C)=C/C(=O)O)C(C)(C)CCC1` [ATRA, all-trans-retinoic acid]: the “relative affinity for RAR and RXR” value in series [1] was “higher affinity to RAR”. The “presence of Gr-1+ cells” value in the series with Gr-1+ cells [2] (in vivo administration) is reported as “dramatically reduces the presence of Gr-1^+ cells”. Moreover, the “effect of tumor vaccines” value with Gr-1+ cells [2] is reported as “improves the effect of tumor vaccines”. The “proportion of CD11b+CD14−CD33+ MDSC” value with MDSC (patients treated with ATRA (arm C), p=0.03) is on record as “decreased less dramatically but also significantly”. The “presence of Lin−HLA-DR−CD33+ MDSC” value in the series with MDSC (patients treated with ATRA (arm C: vaccine plus 150 mg/m2 ATRA), p=0.02) is recorded as “decreased more than two-fold”. Further, in the series with MDSCs, the MDSC/DC ratio entry is recorded as “improved MDSC/DC ratio to control levels” and the “presence of MDSC” value was “significantly decreased the presence of MDSC”. Moreover, the “differentiation and immunosuppressive effect of Gr-1+ cells” value in the series on Gr-1+ cells [3] was “differentiates these cells in vitro and removes their immunosuppressive effect”. Besides, in the series on human MDSCs, the “fraction of MDSCs becoming DC-like” value is recorded as “⅔” and the “fraction of MDSCs becoming myeloid” value is “⅓”.
Consider “MK-3475: humanized monoclonal antibody of the IgG4/kappa isotype blocking the interaction between PD-1 and its ligands”, for which the “patients responding to therapy” value in the series with advanced stage NSCLC (PD-L1 high tumors, Six of 9, 95% CI 30-93%) was 67%; with advanced stage NSCLC (PD-L1 low tumors, 0/22, 95% CI 0-15%), 0%. In addition, the “overall objective response rate” value with advanced stage NSCLC (investigator-assessed irRC, 38 patients) is 24%. The ORR in series [4] (PD-L1 expressing tumors, RECIST, (16-30%)) is 23%; in series [4] (PD-L1 expressing tumors, irRC, 95% CI 14-26%), 19%; in [4] (PD-L1 negative tumors, RECIST, (2-23%)), 9%; in series [4] (PD-L1 negative tumors, irRC, 95% CI 4-27%), 13%. Further, the “overall response rate (ORR)” value in [4] (RECIST v1.1, 95% CI 15-26%) is 20%; in series [4] (irRC, 10 mg/kg Q2W or Q3W, 95% CI 13-24%), 18%. The “patients who developed grade 3/4 pneumonitis” value in [5] (2 patients in each schedule) is “Four”. In addition, the “drug-related adverse event: arthralgia” value in series [5] (217 patients) is on record as 6.1%. Also, the “drug-related adverse event: pruritis” value in [5] (217 patients) is given as 5.4%. Further, in series [5] (217 patients), the “drug-related adverse event: pyrexia” value is reported as 3.6%. Further, in series [5] (217 patients), the “patients with grade 3/4 drug-related adverse events” value is recorded as “Six”. In addition, the drug-related deaths entry in series [6] is recorded as “no drug-related deaths”. Besides, the “grade 3/4 event (grade 3 pulmonary edema)” value in series [6] was “one”.
